# Key:
# CYP71A13 = CYP71A13 (Arabidopsis thaliana, UniProt O49342); details: estimate only, not a measured constant; Cys as thiol donor
# CYP71A12 = CYP71A12 (Arabidopsis thaliana, UniProt O49340); details: estimate only, not a measured constant; Cys as thiol donor
# Chain of CYP71A12 (O49340 whole entry): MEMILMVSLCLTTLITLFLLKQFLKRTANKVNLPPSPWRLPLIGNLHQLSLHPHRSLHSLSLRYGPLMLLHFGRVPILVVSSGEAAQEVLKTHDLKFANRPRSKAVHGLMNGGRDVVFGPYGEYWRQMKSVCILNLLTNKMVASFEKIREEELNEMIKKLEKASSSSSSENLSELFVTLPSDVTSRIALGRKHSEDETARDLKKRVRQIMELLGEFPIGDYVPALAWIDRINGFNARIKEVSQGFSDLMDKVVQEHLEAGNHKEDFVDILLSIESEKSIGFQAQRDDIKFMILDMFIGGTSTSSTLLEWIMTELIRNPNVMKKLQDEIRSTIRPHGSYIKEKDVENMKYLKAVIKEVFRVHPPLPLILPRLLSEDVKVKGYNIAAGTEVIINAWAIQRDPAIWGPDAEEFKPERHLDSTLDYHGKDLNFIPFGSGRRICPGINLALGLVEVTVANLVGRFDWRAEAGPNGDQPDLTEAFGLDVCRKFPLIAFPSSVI
# Chain of CYP71A13 (O49342 whole entry): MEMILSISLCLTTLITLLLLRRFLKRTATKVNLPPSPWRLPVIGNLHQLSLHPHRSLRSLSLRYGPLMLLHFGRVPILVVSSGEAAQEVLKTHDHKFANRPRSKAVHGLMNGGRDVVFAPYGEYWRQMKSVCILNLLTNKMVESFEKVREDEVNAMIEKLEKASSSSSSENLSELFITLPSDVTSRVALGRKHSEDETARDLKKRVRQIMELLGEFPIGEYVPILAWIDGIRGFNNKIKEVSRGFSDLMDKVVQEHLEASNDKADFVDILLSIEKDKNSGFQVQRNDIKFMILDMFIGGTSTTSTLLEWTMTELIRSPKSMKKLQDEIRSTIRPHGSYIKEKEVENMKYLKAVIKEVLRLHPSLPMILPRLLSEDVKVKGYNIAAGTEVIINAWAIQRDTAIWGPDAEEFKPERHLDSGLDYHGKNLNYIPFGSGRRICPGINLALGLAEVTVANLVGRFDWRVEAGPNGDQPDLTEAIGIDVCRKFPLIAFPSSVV
structure (smiles),measurement,setting,value
N#CCc1c[nH]c2ccccc12 [IAN],Km,CYP71A13,> 100 µM
same,Km,CYP71A12,> 100 µM

# Reference: PMC3867539 (Angewandte Chemie (International ed. in English), 2013)
